Square brackets hold non-standard residues; d marks the D form. Ends that are not written are not given here. Peptide text beside a SMILES is read from it. Aad = N[C@@H](CCCC(=O)O)C(=O)O
What was measured:
NO66 = biological target: T1, NO66 (Homo sapiens, UniProt Q9H6W3); assay: NO66 inhibition assay by Rpl8 peptides (MALDI-TOF MS); format: biochemical; conditions: 10 μM 2OG; for IC50: 400 nM NO66, 10 nM to 250 μM inhibitor Rpl peptide, 100 μM L-ascorbic acid, 10 μM ferrous ammonium sulfate, 50 mM MES pH 7.0, Rpl8-His216 substrate, duplicate assays; for inhibition at 5 µM: 5 μM inhibitor Rpl8 peptide, 400 nM NO66, 100 μM LAA, 10 μM FAS, 50 mM MES pH 7.0, 10 min preincubation, then 5 μM Rpl8-His216 substrate, 2 hours, room temperature, duplicate
T1 construct: His6; made in house; host or cells: Escherichia coli BL21(DE3), pET-28b
T1 sequence (Q9H6W3 167-641): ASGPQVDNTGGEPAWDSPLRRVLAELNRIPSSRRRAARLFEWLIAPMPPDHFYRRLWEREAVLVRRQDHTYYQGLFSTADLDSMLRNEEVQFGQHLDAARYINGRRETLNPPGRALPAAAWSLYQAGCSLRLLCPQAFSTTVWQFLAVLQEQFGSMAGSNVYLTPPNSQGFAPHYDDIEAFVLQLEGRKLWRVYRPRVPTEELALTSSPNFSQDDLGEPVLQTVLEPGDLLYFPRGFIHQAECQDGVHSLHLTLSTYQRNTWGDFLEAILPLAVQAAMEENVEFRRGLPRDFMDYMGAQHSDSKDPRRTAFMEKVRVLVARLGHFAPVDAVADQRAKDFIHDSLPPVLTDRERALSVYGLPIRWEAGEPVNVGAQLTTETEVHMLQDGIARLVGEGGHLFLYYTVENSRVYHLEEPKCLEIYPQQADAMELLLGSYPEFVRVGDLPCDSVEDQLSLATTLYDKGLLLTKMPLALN
Description: (§1) Having shown that our Rpl peptides are not, at least efficient, ROX substrates, we explored them as inhibitors of the recombinant human ROXs using MALDI-TOF assays (Rpl8/27a-N^τ-Me, Rpl8/27a-N^π-Me, Rpl8/27a-1-TriaA, Rpl8/27a-4-TriaA and Rpl8/27a-TetrA were excluded from the panels for NO66 and MINA53, respectively, due to signal overlap between the two peptides in the assays). Synthetic Rpl peptides (5 or 50 μM) were incubated with MINA53/NO66 (400 nM), ferrous ammonium sulfate (10 μM) and 2OG (10 μM) for 10 minutes, after which time the Rpl27a-His39 and Rpl8-His216 substrates were added, respectively, and the reactions were carried out for 2 hours at room temperature (Fig. 4 and Fig. S9, ESI ^†).
(§2) IC50 values were determined for the peptides that manifested clear inhibition potency by varying the concentration of the Rpl peptide inhibitor from 10 nM to 250 μM (Fig. 5 and Table 1).
(§3) IC50 values for MINA53 inhibition by Rpl27a peptides and NO66 inhibition by Rpl8 peptides. Conditions: 400 nM MINA53/NO66, 10 nM to 250 μM inhibitor Rpl peptide, 100 μM L-ascorbic acid, 10 μM ferrous ammonium sulfate, 10 μM 2OG in 50 mM MES buffer (pH 7.0) for NO66 and 50 mM HEPES (pH 7.5) for MINA53
(§4) MINA53 and NO66 inhibition assays in the presence of Rpl27a31-49 and Rpl8_205-224 peptides, respectively, were performed under the following assay conditions: 400 nM MINA53/NO66, 5/50 μM inhibitor Rpl peptide, 100 μM LAA, 10 μM FAS, 10 μM 2OG in 50 mM MES buffer (pH 7.0) for NO66 and 50 mM HEPES buffer (pH 7.5) for MINA53.[24] After 10 minutes of preincubation 5 μM of substrate peptide was added and the reaction was incubated for 2 hours at room temperature. A positive control reaction containing enzyme and unmodified peptide substrate without any inhibitors was included. After 2 hours the reaction was stopped by addition of 20 μL of 10% (v/v) LC-MS grade formic acid (Fisher Scientific), mixed 1 : 1 with α-cyano-4-hydroxycinnamic acid (CHCCA) matrix dissolved in a mixture of H2O and MeCN (1 : 1, v/v), and loaded onto an MTP 384 polished steel target to be analyzed by MALDI-TOF MS. MINA53/NO66 residual activity was determined by calculating the relative integral of the […] peptide to a control reaction in absence of potential inhibitory peptides. Experiments were carried out in duplicate.
3. Inhibition supporting figure
Figure S9. Results from NO66 inhibition at A) 5 µM and B) 50 µM of Rpl8-based peptides. Error
bars are standard errors (SE) of duplicate analyses. […]

MINA53 = biological target: T2, MINA53 (Homo sapiens, UniProt Q8IUF8); assay: MINA53 inhibition assay by Rpl27a peptides (MALDI-TOF MS); format: biochemical; conditions: 10 μM 2OG; for IC50: 400 nM MINA53, 10 nM to 250 μM inhibitor Rpl peptide, 100 μM L-ascorbic acid, 10 μM ferrous ammonium sulfate, 50 mM HEPES pH 7.5, Rpl27a-His39 substrate, duplicate assays
T2 construct: His6; made in house; host or cells: Escherichia coli BL21(DE3), pET-28b
Description: as §1
Fig. 4 Results for MINA53 inhibition at (a) 5 μM and (b) 50 μM by Rpl27a peptides. Error bars reported as standard errors (SE) carried out in duplicate. See Fig. 2 for analogue structures.
as §2, §3, §4

T2 sequence (Q8IUF8 26-464): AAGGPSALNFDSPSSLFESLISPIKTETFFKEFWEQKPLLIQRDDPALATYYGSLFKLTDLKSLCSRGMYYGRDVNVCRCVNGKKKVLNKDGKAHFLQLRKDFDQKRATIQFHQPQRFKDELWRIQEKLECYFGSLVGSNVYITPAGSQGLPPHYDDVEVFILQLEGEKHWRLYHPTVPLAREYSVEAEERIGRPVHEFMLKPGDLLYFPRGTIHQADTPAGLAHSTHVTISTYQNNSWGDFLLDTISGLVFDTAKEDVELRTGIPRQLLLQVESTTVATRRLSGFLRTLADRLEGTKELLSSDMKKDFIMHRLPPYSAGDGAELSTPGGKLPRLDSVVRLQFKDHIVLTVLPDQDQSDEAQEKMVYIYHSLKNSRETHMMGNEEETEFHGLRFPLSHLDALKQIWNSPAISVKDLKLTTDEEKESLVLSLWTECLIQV

Row | IC50 (NO66) | inhibition at 5 µM (NO66) | IC50 (MINA53) | MINA53 inhibition at 5 μM (in words) (MINA53; 5 μM inhibitor Rpl27a peptide, 400 nM MINA53, 100 μM LAA, 10 μM FAS, 50 mM HEPES pH 7.5, 10 min preincubation, then 5 μM Rpl27a-His39 substrate, 2 hours, room temperature, duplicate) | MINA53 inhibition at 50 μM (in words) (MINA53; 50 μM inhibitor Rpl27a peptide, 400 nM MINA53, 100 μM LAA, 10 μM FAS, 50 mM HEPES pH 7.5, 10 min preincubation, then 5 μM Rpl27a-His39 substrate, 2 hours, room temperature, duplicate) | Compound
1 |  |  | 1470 ± 270 nM |  |  | CC[C@H](C)[C@H](NC(=O)[C@H](CCCNC(=N)N)NC(=O)[C@H](Cc1c[nH]cn1)NC(=O)[C@H](Cc1c[nH]cn1)NC(=O)[C@H](CCCC(N)=O)NC(=O)[C@H](CC(C)C)NC(=O)CNC(=O)CNC(=O)[C@H](C)NC(=O)[C@H](CC(N)=O)NC(=O)CNC(=O)[C@H](CCCNC(=N)N)NC(=O)CN)C(=O)N[C@@H](CC(N)=O)C(=O)N[C@@H](Cc1ccccc1)C(=O)N[C@@H](CC(=O)O)C(=O)N[C@@H](CCCCN)C(=O)N[C@@H](Cc1ccc(O)cc1)C(=O)N[C@@H](Cc1c[nH]cn1)C(=O)N1CCC[C@H]1C(N)=O [Rpl27a-hGln39] (H-GRGNAGGL[Aad](NH2)HHRINFDKYHP-NH2)
2 |  |  | 1020 ± 110 nM | displayed inhibition | strong inhibition | GRGNAGGLNHHRINFDKYHP-NH2 [Rpl27a-Asn39]
3 |  |  | 390 ± 160 nM |  |  | GRGNAGGLQHHRINFDKYHP-NH2 [Rpl27a-Gln39]

The next lines start with the compound.

Row | Compound | IC50 (NO66) | inhibition at 5 µM (NO66) | IC50 (MINA53) | MINA53 inhibition at 5 μM (in words) (MINA53; 5 μM inhibitor Rpl27a peptide, 400 nM MINA53, 100 μM LAA, 10 μM FAS, 50 mM HEPES pH 7.5, 10 min preincubation, then 5 μM Rpl27a-His39 substrate, 2 hours, room temperature, duplicate) | MINA53 inhibition at 50 μM (in words) (MINA53; 50 μM inhibitor Rpl27a peptide, 400 nM MINA53, 100 μM LAA, 10 μM FAS, 50 mM HEPES pH 7.5, 10 min preincubation, then 5 μM Rpl27a-His39 substrate, 2 hours, room temperature, duplicate)
4 | CC[C@H](C)[C@H](NC(=O)[C@H](Cc1c[nH]cn1)NC(=O)[C@H](CCC(N)=O)NC(=O)[C@H](CCCC(N)=O)NC(=O)[C@H](CC(N)=O)NC(=O)CNC(=O)CNC(=O)CNC(=O)[C@H](Cc1ccccc1)NC(=O)[C@@H]1CCCN1C(=O)[C@H](Cc1c[nH]cn1)NC(=O)[C@H](CCC(=O)O)NC(=O)[C@@H](NC(=O)[C@@H]1CCCN1C(=O)[C@@H](N)CC(N)=O)C(C)C)C(=O)NCC(=O)N[C@@H](CCCCN)C(=O)N1CCC[C@H]1C(=O)N[C@@H](CO)C(=O)N[C@H](C(N)=O)[C@@H](C)O [Rpl8-hGln216] (H-NPVEHPFGGGN[Aad](NH2)QHIGKPST-NH2; N-terminus assumed) | 11.2 ± 0.4 µM | ~50% |  |  | 
5 | NPVEHPFGGGNNQHIGKPST-NH2 [Rpl8-Asn216] | 8.86 ± 0.36 µM | ~50% |  |  | 

Reference: publication PMC9994133, “Substrate selectivity and inhibition of histidine JmjC hydroxylases MINA53 and NO66” (RSC Chemical Biology, 2023)
